Data from patent US20020055099A1, “SEQUENTIAL CDNA LIBRARY AND USES THEREOF” (priority 1999, published 2002).

Key:
[1] = tested on: HO-1 human melanoma cells; assay: SCLA reverse Northern hybridization of arrayed subtracted cDNA library with mRNAs from treated HO-1 cells; type: cell-based; settings: IFN-β 2000 units/ml, MEZ 10 ng/ml, staurosporine 500 ng/ml, temporally pooled mRNAs
Description: Staurosporine-treated HO-1 cells were harvested at 4, 8 and 24 hrs after treatment.
For reverse Northern analysis, RNA samples from each time point were pooled and 20 μg of pooled total RNA was reverse transcribed in two reactions into a ^32P-labeled first strand cDNA probe. After heating at 70° C. for 10 min and quenching on ice for two min, a mixture consisting of 10 pmole of T13V and 10 μg of the total RNA mixture in 50 mM Tris-HCl (pH 8.3), 75 mM KCl, 3 mM MgCl2, 10 mM DTT, 0.5 mM DATP, 0.5 mM dGTP, 0.5 mM dTTP, 0.02 mM dCTP, 5 U RNase inhibitor (Gibco BRL), 100 μCi dCTP (3000 Ci/mmole from Amersham) and 200 U Superscript RT II (Gibco BRL) was added (final 25 μl). The reaction mixture was incubated at 42° C. for one hr and at 37° C. for 30 min after addition of 2 μl of RNase H (10U, Gibco BRL). The membrane was hybridized at 42° C. overnight in a 50% formamide hybridization solution. The hybridized membrane was washed 2× at room temperature for 15 min with 2× SSC containing 0.1% SDS and then washed for at least one hr at 55° C. with 0.1× SSC containing 0.1% SDS. The membranes were exposed for different times to autoradiography.
After subtraction hybridization, a temporally spaced amplified subtracted (TSS) cDNA library (consisting of 4,979 plaques) was picked and plated individually (arrayed) in thirteen 384-well microtiter plates. […] This approach permitted the identification of cDNAs displaying altered expression as a function of the specific treatment protocol.

[2] = tested on: HO-1 human melanoma cells; settings: HO-1 cells, cited from earlier work
[3] = IFN-β 2000 units/ml, MEZ 10 ng/ml where printed

SMILES | clones induced only by the agent (uniquely positive after a single treatment protocol) [1] | effect on HO-1 cell growth [2, 3] | melanin synthesis / differentiation marker [2, 3] | morphological differentiation ([2]; MEZ 10 ng/ml) | positive clones (DMAC) identified after treatment, of 427 positive clones [1] | apoptosis [2]
C=C(C)[C@@]12O[C@@]3(c4ccccc4)O[C@@H]1[C@@H]1[C@@H]4O[C@]4(CO)[C@@H](O)[C@]4(O)C(=O)C(C)=C[C@H]4[C@@]1(O3)[C@H](C)[C@H]2OC(=O)/C=C/C=C/c1ccccc1 [MEZ, mezerein] | 12 clones | growth suppression | elevated melanin levels | exhibit morphological differentiation |  | 
CN[C@@H]1C[C@H]2O[C@@](C)([C@@H]1OC)n1c3ccccc3c3c4c(c5c6ccccc6n2c5c31)C(=O)NC4 [staurosporine] | 25 clones |  |  |  | 107 clones | induces apoptosis
